# Tested on: splenocytes from LCMV-CL13 infected IFN-γ-YFP mice
# Format: cell-based
row,SMILES,Mean Z-score at 1 μM (reversal of T-cell exhaustion)
1,O=S(=O)(NCCCCCCc1ccccc1)c1cccc2c(Cl)cccc12 [5-chloro-N-(6-phenylhexyl)naphthalene-1-sulfonamide],11.1
2,CCCCCCCCCCCCCC(=O)O[C@@H]1[C@@H](C)[C@@]2(O)C(C=C(CO)C[C@]3(O)C(=O)C(C)=C[C@@H]23)[C@@H]2C(C)(C)[C@]12OC(C)=O (some centres unmarked) [12-O-tetradecanoylphorbol-13-acetate],17.8
3,C/C=C(/C)C(=O)O[C@H]1C(C)=C[C@]23C(=O)[C@@H](C=C(CO)[C@@H](O)[C@]12O)[C@H]1[C@@H](C[C@H]3C)C1(C)C [Ingenol-3-angelate],30.9
4,CC1=C[C@]23C(=O)[C@@H](C=C(CO)[C@@H](O)[C@]2(O)[C@H]1O)[C@H]1[C@@H](C[C@H]3C)C1(C)C [Ingenol],0.6
5,CO[C@@H](CC[C@H](C)[C@H]1O[C@@]23C[C@H](OC(=O)C2=C(O)[C@H](C)CC3(C)C)[C@@H]1C)c1cccc(O)c1 [Neo-debromoaplysiatoxin B],3.6
6,CC(=O)O[C@@]12[C@H](O)[C@@H](C)[C@@]3(O)C(C=C(CO)C[C@]4(O)C(=O)C(C)=C[C@@H]34)[C@@H]1C2(C)C (some centres unmarked) [Phorbol-13-acetate],0.9
7,CC(C)[C@H]1C(=O)N[C@H](CO)Cc2cc(NC(=O)/C=C/C=C/c3ccc(C(F)(F)F)cc3)ccc2N1C [TPPB],4.6
8,CC(=O)O[C@@]12C[C@@H](C)[C@@]3(O)[C@@H](C=C(CO)C[C@]4(O)C(=O)C(C)=C[C@@H]34)[C@@H]1C2(C)C [prostratin],48.9
